Key:
Format in all cases: in vivo
Soybeans (GLXMA) [1] = test: Crop injury after spray with crop rows covered by rain gutters, soybeans (Example 2, Table 6); conditions: MSO + AMS
From the text: In a second set of trials Soybeans (GLXMA) were planted in a standard planting system with 30 in row spacing and grown until they reached a BBCH growth stage of 11-12 or roughly 12 cm average height.
Application was made using a CO2 pressurized backpack sprayer and a handheld 6 nozzle boom, operating at 2.5 bar. The application was made at damp soil conditions and a windspeed of 0-15 km/h. The crop rows were covered during the actual spray application using upside down metal rain gutters (10 cm×10 cm depth×width) covering the crop and the soil below of about 5 cm on either side from the crop row center. All treatments included 1.5 L of a methylated seed oil (MSO) and 2 Kg/ha Ammonium sulfate (AMS) salt source and were mixed into 1 L fraction of an equivalent to 200 L/ha spray solution.
(§1) […] The crop injury was rated were visually on a percentage scale in relation to the untreated control (100%=all plants dead; 50%=green plant biomass reduced by 50%, and 0%=no discernible difference=like control plot).

[2] = tested on: Pepper plants (Capsicum frutescens L., CPSFR); test: Crop injury after shielded spray around transplanted pepper plants (Example 3, Table 7)
From the text: In a third set of trials pepper plants (Capsicum frutescens L., CPSFR) were manually transplanted at a growth stage of BBCH 13 in a field and grown until they reached BBCH growth stage of 14 or roughly 10 cm average crop height.
Application was made using a compressed air sprayer and a handheld 1 nozzle spray lance. The nozzle was shielded by a spray shield to prevent unintended spray drift during application. The application was made at damp soil conditions and calm wind around each single pepper plant. The crop plants were shielded from spray drift during application and spray slurry reached only the soil and weed cover surrounding the pepper plants.
as §1

Soybeans (GLXMA) [3] = test: Crop injury after hooded band spot-spray between crop rows, soybeans (Example 1, Table 5); conditions: 1440 g a.i./ha, MSO + AMS
From the text: Sunflower (HELAN), Corn (ZEAMD) and Soybeans (GLXMA) were planted in a standard planting system with 30 in row spacing and grown until they reached a BBCH growth stage of 16-18; 12-13 and 14, respectively.
Application was made using a CO2 pressurized backpack sprayer and a handheld two nozzle boom, operating at 2.75 bar. Each of the nozzles (TeeJet Extended Air Induction nozzle 0015) was equipped with a plastic hood covering a 38 cm band left and right of each crop row and preventing unintended spray drift outside the band. The spray solution covered a band of roughly 38 cm on either side of the crop row with an average distance 8 cm to the row center and 2-10 cm distance between soil surface and lower end of the spray shield. The application was made at damp soil conditions and a windspeed of 0-10 km/h. All treatments included 1.5 L of an methylated seed oil (MSO) and 2 Kg/ha Ammonium sulfate (AMS) salt source and were mixed into 1 L fraction of an equivalent to 187 L/ha spray solution.
The crop injury assessments were conducted as visual assessments at 15, 28 and 45 days after application (DAA) in case of Sunflower and soybeans and at 14 and 27 DAA in case of com. Also in case of Table 5 assessments were done in soybeans at 15, 25 and 44 DAA. The crop injury was rated were visually on a percentage scale in relation to the untreated control (100%=all plants dead; 50% =green plant biomass reduced by 50%, and 0%=no discernible difference=like control plot).

Measured: Crop injury [% untreated]

C=CC1(C(=O)NC2COC(C(=O)OC)C2)CC(c2cc(F)cc(F)c2)=NO1 (mixture of isomers) [A 1.68]
0 % untreated: Soybeans (GLXMA) [1]; 100 g a.i./ha, 7 DAA | Soybeans (GLXMA) [1]; 100 g a.i./ha, 15 DAA | Soybeans (GLXMA) [1]; 100 g a.i./ha, 28 DAA | Soybeans (GLXMA) [1]; 100 g a.i./ha, 45 DAA | Soybeans (GLXMA) [1]; 200 g a.i./ha, 7 DAA | Soybeans (GLXMA) [1]; 200 g a.i./ha, 15 DAA | Soybeans (GLXMA) [1]; 200 g a.i./ha, 28 DAA | Soybeans (GLXMA) [1]; 200 g a.i./ha, 45 DAA | [2]; 100 g a.i./ha, 5 DAA | [2]; 100 g a.i./ha, 7 DAA | [2]; 100 g a.i./ha, 14 DAA | [2]; 150 g a.i./ha, 5 DAA | [2]; 150 g a.i./ha, 7 DAA | [2]; 150 g a.i./ha, 14 DAA

O=C(O)CNCP(=O)(O)O [Glyphosate, glyphosate, reference compound]
0 % untreated: Soybeans (GLXMA) [3]; 15 DAA | Soybeans (GLXMA) [3]; 25 DAA | Soybeans (GLXMA) [3]; 44 DAA | Soybeans (GLXMA) [1]; 1440 g a.i./ha, 7 DAA | Soybeans (GLXMA) [1]; 1440 g a.i./ha, 15 DAA | Soybeans (GLXMA) [1]; 1440 g a.i./ha, 28 DAA | Soybeans (GLXMA) [1]; 1440 g a.i./ha, 45 DAA
